Reference: US20200276168A1, “Sustained Release Pharmaceutical Compositions and Methods of Use” (Qrono, Inc., priority 2015, published 2020)

Test system: head and neck squamous cell carcinoma cells
Test: head and neck squamous cell carcinoma xenograft model, tumor volume monitored for 4 weeks
Format: in vivo, mice
Conditions: payload equal to low dose sustained release formulation (210 nanograms), FIG. 2
Procedure: Athymic mice were injected subcutaneously with head and neck squamous cell carcinoma cells to form tumors. Mice were divided into groups and treated with a sustained release composition according to the present invention, QR206, at a high dose (2.1 micrograms) a low dose (210 nanograms), or with a low dose of unformulated drug (epothilone D, 210 nanograms). Tumor volume was monitored for 4 weeks.

With `C/C1=C/C[C@@H](/C(C)=C/c2csc(C)n2)OC(=O)C[C@H](O)C(C)(C)C(=O)[C@H](C)[C@@H](O)[C@@H](C)CCC1` [EpoD, Epothilone D] the “tumor growth rate of vehicle only control compared with the unformulated drug” value was “higher tumor growth rate”.
